Measurements reported in patent publication US10668040B2, “Treatment of urea cycle disorders in neonates and infants” (Horizon Therapeutics, LLC, priority 2017, dated 2020).

Assays:
Type in all cases: in vivo, human
[1] = tested on: pediatric patients with UCDs; experiment: HPN-100-012 switch-over study: 24-hour blood ammonia on HPN-100 vs NaPBA
Excerpt: HPN-100-012 was an open-label, fixed sequence, switch-over study of the safety, PK and efficacy of HPN-100 compared to NaPBA in patients with UCDs, with a 12-month safety extension part. […] After review of all the safety data by the DSMB, 8 additional subjects were enrolled in the study after the switch-over phase was completed.

UCD patients = experiment: HPN-100-009 (Example 2): treatment-emergent, serious and non-serious adverse events; conditions: Age 2 Months to <2 Years
Excerpt: Number of Subjects with Treatment-Emergent Adverse Events (TEAEs), Serious TEAEs, Deaths, and Discontinuations Due to TEAEs.
End point description. An adverse event (AE) was any untoward medical occurrence, whether or not the event is considered related to the study drug. […] TEAEs were defined as AEs with an onset date on or after the first dose of study medication until study discontinuation. The Investigator assessed the causal relationship of each TEAE to the study drug as not related, possibly related, or probably related. Safety population: all enrolled subjects who received any amount of study medication. End point timeframe: up to 370 days.
Adverse Events Information.
Timeframe for reporting adverse events: From first dose of study treatment up to 370 days (data cutoff); median (full range) duration of treatment was 4.68 (0.2 to 10.9) months. Adverse event reporting additional description: TEAEs (defined as AEs with an onset date on or after the first dose of study medication until study discontinuation) are presented.

[2] = Example 3: urinary PAGN concentrations (first full day and up to end of trial)
Experimental: Urinary PAGN Concentrations on the First Full Day of RAVICTI Dosing
PK Evaluable Population: all subjects from the safety population with individual concentration-time profiles that allow computation of meaningful PK parameter values. Measurements were taken at hour 0, between 0.5 and 1.5 hours, between 1.5 and 2.5 hours, between 4 and 6 hours, between 7.5 and 8.5 hours, and between 12 and 24 hours after the first dose of the day on day 1 for stable subjects and on day 2 for subjects in HAC.
Urinary PAGN Concentrations Up to End of Trial
PK Evaluable Population: all subjects from the safety population with individual concentration-time profiles that allow computation of meaningful PK parameter values. Measurements were taken at day 7, month 1, month 2, month 3, month 4, month 5, month 6, month 9, month 12, month 15, month 18, month 24, and at the end of the trial.

[3] = original scale, non-inferiority upper margin 1.25

Structure (SMILES): O=C(CCCc1ccccc1)OCC(COC(=O)CCCc1ccccc1)OC(=O)CCCc1ccccc1 [RAVICTI, benzenebutanoic acid, 1′,1″-(1,2,3-propanetriyl) ester]
- Mean blood ammonia ([1]; 8-h time point, HPN-100 Day 10): 23.20 µmol/L
- Mean blood ammonia ([1]; 12-hour time point, HPN-100 Day 10, NaPBA Day 1): 28.24 µmol/L
- upper 90% CI, blood ammonia 24-hour AUC HPN-100 vs NaPBA [1, 3]: 1.002
- upper 95% CI, blood ammonia 24-hour AUC HPN-100 vs NaPBA [1, 3]: 1.055
- median difference between treatments in ammonia AUC (HPN-100 vs NaPBA) ([1]; pediatric UCD patients 29 days to <6 years): -37.84 µmol·h/L
- 24-hour AUC for blood ammonia, HPN-100 (Day 10) compared with NaPBA (Day 1) ([1]; pediatric UCD patients 29 days to <6 years, non-inferiority upper margin 1.25): non-inferior to NaPBA
- Mean blood ammonia levels following an overnight fast ([1]; pre-dose and 24 hours post dose): normal
- Non-serious AE Anaemia: Occurrences (All) (UCD patients): 1
- Non-serious AE Apnoeic Attack: Occurrences (All) (UCD patients): 1
- Non-serious AE Cough: Occurrences (All) (UCD patients): 1
- Non-serious AE Deep Vein Thrombosis: Occurrences (All) (UCD patients): 1
- Non-serious AE Diarrhoea: Occurrences (All) (UCD patients): 1
- Non-serious AE Gross Motor Delay: Occurrences (All) (UCD patients): 1
- Non-serious AE Hypophagia: Occurrences (All) (UCD patients): 1
- Non-serious AE Infections (Gastroenteritis): Occurrences (All) (UCD patients): 1
- Non-serious AE Infections (Nasopharyngitis): Occurrences (All) (UCD patients): 1
- Non-serious AE Infections (Upper Respiratory Tract): Occurrences (All) (UCD patients): 4
- Non-serious AE Infections (Urinary Tract): Occurrences (All) (UCD patients): 1
- Non-serious AE Infections (Viral): Occurrences (All) (UCD patients): 1
- Non-serious AE Metabolic Acidosis: Occurrences (All) (UCD patients): 1
- Non-serious AE Nail Ridging: Occurrences (All) (UCD patients): 1
- Non-serious AE Rash: Occurrences (All) (UCD patients): 2
- Non-serious AE Rhinorrhoea: Occurrences (All) (UCD patients): 1
- Non-serious AE Stoma Site Reaction: Occurrences (All) (UCD patients): 1
- Non-serious AE Teething: Occurrences (All) (UCD patients): 1
- Non-serious AE Tibia Fracture: Occurrences (All) (UCD patients): 1
- Non-serious AE Vesicoureteric Reflux: Occurrences (All) (UCD patients): 1
- Non-serious AE Vomiting: Occurrences (All) (UCD patients): 3
- Number of Deaths (All Causes) (UCD patients): 1
- Serious AE Apnoeic Attack: Deaths Causally Related to Treatment/All (UCD patients): 0/0
- Serious AE Apnoeic Attack: Occurrences Causally Related to Treatment/All (UCD patients): 0/2
- Serious AE Hyperammonaemia: Deaths Causally Related to Treatment/All (UCD patients): 0/0
- Serious AE Hyperammonaemia: Occurrences Causally Related to Treatment/All (UCD patients): 0/8
- Serious AE Infections (Croup): Deaths Causally Related to Treatment/All (UCD patients): 0/0
- Serious AE Infections (Croup): Occurrences Causally Related to Treatment/All (UCD patients): 0/1
- Serious AE Infections (Gastroenteritis): Deaths Causally Related to Treatment/All (UCD patients): 0/0
- Serious AE Infections (Gastroenteritis): Occurrences Causally Related to Treatment/All (UCD patients): 0/1
- Serious AE Infections (Urinary Tract): Deaths Causally Related to Treatment/All (UCD patients): 0/0
- Serious AE Infections (Urinary Tract): Occurrences Causally Related to Treatment/All (UCD patients): 0/1
- Serious AE Infections (Viral): Deaths Causally Related to Treatment/All (UCD patients): 0/0
- Serious AE Infections (Viral): Occurrences Causally Related to Treatment/All (UCD patients): 0/1
- Serious AE Pneumatosis: Deaths Causally Related to Treatment/All (UCD patients): 0/1
- Serious AE Pneumatosis: Occurrences Causally Related to Treatment/All (UCD patients): 0/1
- Subjects with fatal outcome TEAE (UCD patients; 10 analyzed, up to 370 days): 1 Subjects
- Subjects with ≥1 Related TEAE (UCD patients; 10 analyzed, up to 370 days): 4 Subjects
- Subjects with ≥1 Serious Related TEAE (UCD patients; 10 analyzed, up to 370 days): 0 Subjects
- Subjects with ≥1 Serious TEAE (UCD patients; 10 analyzed, up to 370 days): 6 Subjects
- Subjects with ≥1 TEAE (UCD patients; 10 analyzed, up to 370 days): 10 Subjects
- Subjects with ≥1 TEAE Leading to Study Discontinuation (UCD patients; 10 analyzed, up to 370 days): 1 Subjects
- Urinary PAGN concentration ([2]; Age 0 to <2 months, Day 7): 4643 (±2506); μg/mL
- Urinary PAGN concentration ([2]; Age 0 to <2 months, End of trial): 6939 (±6581); μg/mL
- Urinary PAGN concentration ([2]; Age 0 to <2 months, Month 1): 4517 (±2485), μg/mL
- Urinary PAGN concentration ([2]; Age 0 to <2 months, Month 2): 4116 (±3137); μg/mL
- Urinary PAGN concentration ([2]; Age 0 to <2 months, Month 3): 7037 (±4493); μg/mL
- Urinary PAGN concentration ([2]; Age 0 to <2 months, Month 4): 2826 (±1543); μg/mL
- Urinary PAGN concentration ([2]; Age 0 to <2 months, Month 5): 6973 (±3682); μg/mL
- Urinary PAGN concentration ([2]; Age 0 to <2 months, Month 6): 5883 (±3128); μg/mL
- Urinary PAGN concentration ([2]; Age 0 to <2 months, Month 9): 7006 (±4289); μg/mL
- Urinary PAGN concentration ([2]; Age 0 to <2 months, Month 12): 5847 (±2992); μg/mL
- Urinary PAGN concentration ([2]; Age 0 to <2 months, Month 15): 3915 (±2584); μg/mL
- Urinary PAGN concentration ([2]; Age 0 to <2 months, first full day, 0.5 to 1.5 hours): 1828 (±2862); μg/mL
- Urinary PAGN concentration ([2]; Age 0 to <2 months, first full day, 1.5 to 2.5 hours): 1746 (±1464); μg/mL
- Urinary PAGN concentration ([2]; Age 0 to <2 months, first full day, 4 to 6 hours): 2260 (±1472); μg/mL
- Urinary PAGN concentration ([2]; Age 0 to <2 months, first full day, 7.5 to 8.5 hours): 3530.43 (±3600.4), μg/mL
- Urinary PAGN concentration ([2]; Age 0 to <2 months, first full day, 12 to 24 hours): 4404 (±3766); μg/mL
- Urinary PAGN concentration ([2]; Age 0 to <2 months, first full day, Hour 0): 3530.43 (±3600.4); μg/mL
- Urinary PAGN concentration ([2]; Age 2 months to <2 years, Day 7): 8859 (±10500); μg/mL
- Urinary PAGN concentration ([2]; Age 2 months to <2 years, End of trial): 25333 (±21324); μg/mL
- Urinary PAGN concentration ([2]; Age 2 months to <2 years, Month 1): 6274 (±4802); μg/mL
- Urinary PAGN concentration ([2]; Age 2 months to <2 years, Month 2): 7386 (±6419); μg/mL
- Urinary PAGN concentration ([2]; Age 2 months to <2 years, Month 3): 11456 (±14471); μg/mL
- Urinary PAGN concentration ([2]; Age 2 months to <2 years, Month 4): 21416 (±33695); μg/mL
- Urinary PAGN concentration ([2]; Age 2 months to <2 years, Month 5): 6129 (±8024); μg/mL
- Urinary PAGN concentration ([2]; Age 2 months to <2 years, Month 6): 5347 (±3153); μg/mL
- Urinary PAGN concentration ([2]; Age 2 months to <2 years, Month 9): 9357 (±7286); μg/mL
- Urinary PAGN concentration ([2]; Age 2 months to <2 years, Month 12): 2580 (±286); μg/mL
- Urinary PAGN concentration ([2]; Age 2 months to <2 years, Month 15): 6400 (±00000); μg/mL
- Urinary PAGN concentration ([2]; Age 2 months to <2 years, Month 18): 5250 (±00000); μg/mL
- Urinary PAGN concentration ([2]; Age 2 months to <2 years, first full day, 0.5 to 1.5 hours): 4140 (±4399); μg/mL
- Urinary PAGN concentration ([2]; Age 2 months to <2 years, first full day, 1.5 to 2.5 hours): 3145 (±5045); μg/mL
- Urinary PAGN concentration ([2]; Age 2 months to <2 years, first full day, 4 to 6 hours): 5202 (±4547); μg/mL
- Urinary PAGN concentration ([2]; Age 2 months to <2 years, first full day, 7.5 to 8.5 hours): 3950 (±3068); μg/mL
- Urinary PAGN concentration ([2]; Age 2 months to <2 years, first full day, 12 to 24 hours): 7561 (±6956); μg/mL
- Urinary PAGN concentration ([2]; Age 2 months to <2 years, first full day, Hour 0): 3273 (±1993); μg/mL
